Data: patent US8227604B2, “Hybrid 2-aminotetralin and aryl-substituted piperazine compounds and their use in altering CNS activity” (Wayne State University, priority 2001, dated 2012)

Key:
D3 receptor [1] = target: T1, D3 receptor (Homo sapiens, UniProt P35462); experiment: Binding affinity at cloned human D3 receptor, [3H]Spiperone (Table 5); set-up: expressed in transfected cells; host or cells: CHOp-D3 cells; conditions: for activity at the D3 receptor: Table 5; for Ki: cloned human D3, Table 5
D2 receptor [2] = target: T2, D2 receptor (Homo sapiens, UniProt P14416); experiment: Binding affinity at cloned human D2 receptor, [3H]Spiperone (Table 5); conditions: for affinity for the D2 receptor: Table 5; for Ki: cloned human D2, Table 5
T2 construct: expressed in transfected cells

D3 receptor [3] = target: T1, D3 receptor; experiment: Binding affinity at cloned human D3 receptor, [3H]YM-09151-2 (CHOp-D3 cells); set-up: expressed in transfected cells; host or cells: CHOp-D3 cells; conditions: for Ki: cloned human D3; for D2/D3: ratio of Ki D2 to Ki D3, [3H]YM-09151-2 protocol of Table 4
Description: (§1) CHOp-cells (human receptors) are grown to confluence in a minimum essential medium (α MEM) containing 10% fetal calf serum, 0.05% pen-strep, and 600 μg/ml of G418. The cells are scraped from the 100 by 20 mm plates and centrifuged at 500. g for 5 min. The pellet is homogenized by polytron in 50 mM Tris-HCl, pH 7.7, and centrifuged at 27,000·G for 12 min. The pellet is resuspended in 50 mM Tris, D2 at 5 mg protein/ml, D3 at 1 mg protein/ml, and stored at −70° C. in 1-ml aliquots.
(§2) On the day of the experiment, CHOp-D2 or CHOp-D3 cells are thawed, resuspended in 50 mM Tris, and centrifuged at 27,000·G for 12 min. The pellet is then resuspended at 5 mg protein/80 ml (D2) and 1 mg protein/80 ml (D3) in 50 mM Tris containing 120 mM of NaCl, 5 mM of KCl, 1.5 mM of CaCl2, 4 mM of MgCl2, and 1 mM of EDTA, pH 7.4. […] Nonspecific binding is determined with 1 mM of chlorpromazine. The plates are incubated at 25° C. for 60 min before filtration and counted as usual. The filters are soaked in 0.1% PEI before filtering.

D2 receptor [4] = target: T2, D2 receptor; experiment: Agonist potency by [3H]thymidine incorporation (mitogenesis), D2; assay type: cell-based; conditions: [3H]thymidine incorporation; for Emax: >80% full agonist, read-out: D2 % Maxm Stim
Description: (§3) Potential as domaminergenic agonists was assayed by ^3H-thymidine incorporation by standard techniques.
(§4) The EC50 values thus indicate intrinsic activities or functional activities of these compounds. The value of % maximum stimulation indicates whether a compound is a partial agonist or full agonist. Generally, a value greater than 80% is considered as a full agonist and anything less than 80% is considered as a partial agonist.

D1 receptor = target: T3, D1 receptor (Homo sapiens, UniProt P21728); experiment: Binding affinity at cloned human D1 receptor, [3H]SCH23390 (LHD1 cells)
T3 construct: expressed in transfected cells; host or cells: LHD1 cells
Description: LHD1 cells (human receptor) are grown and prepared as described for the HA7 cells as described hereafter. The final pellet is resuspended at 5 mg protein/80 ml in 50 mM Tris-HCl containing 120 mM of NaCl, 5 mM of KCl, 2 mM of CaCl2, and 1 mM of MgCl2, pH 7.4. To wells containing 100 μl of test drug or buffer and […] of [^3H]SCH 23390 (0.18 nM final conc.), is added 0.8 ml of cell homogenate (0.05 mg protein/well), and the plates are incubated at […] for 60 min. Nonspecific binding is determined with 1 μM of SCH 23390.

D3 receptor [5] = target: T1, D3 receptor; experiment: Agonist potency by [3H]thymidine incorporation (mitogenesis), D3; assay type: cell-based; set-up: expressed in transfected cells; host or cells: CHOp-D3 cells; conditions: [3H]thymidine incorporation; for Emax: >80% full agonist, read-out: D3 % Maxm Stim
Description: as §3, §4

D2L receptor = target: T4, D2L receptor (Homo sapiens, UniProt P14416); experiment: Inhibition constants for binding to cloned D2L receptor expressed in HEK cells, [3H]spiperone
T4 construct: expressed in transfected cells; host or cells: HEK cells
Description: (§5) Inhibition constants for binding to cloned D2L and D3 receptors expressed in HEK cells by displacing [^3H] spiperone were measured for several compounds.

5HT2A receptor = target: T5, 5HT2A receptor (Homo sapiens, UniProt P28223); experiment: Binding affinity at cloned human 5HT2A receptor, [3H]Ketanserin
T5 construct: expressed in transfected cells

5HT2C receptor = target: T6, 5HT2C receptor (Homo sapiens, UniProt P28335); experiment: Binding affinity at cloned human 5HT2C receptor, [3H]Mesulergine
T6 construct: expressed in transfected cells
T6 sequence (P28335 33-458): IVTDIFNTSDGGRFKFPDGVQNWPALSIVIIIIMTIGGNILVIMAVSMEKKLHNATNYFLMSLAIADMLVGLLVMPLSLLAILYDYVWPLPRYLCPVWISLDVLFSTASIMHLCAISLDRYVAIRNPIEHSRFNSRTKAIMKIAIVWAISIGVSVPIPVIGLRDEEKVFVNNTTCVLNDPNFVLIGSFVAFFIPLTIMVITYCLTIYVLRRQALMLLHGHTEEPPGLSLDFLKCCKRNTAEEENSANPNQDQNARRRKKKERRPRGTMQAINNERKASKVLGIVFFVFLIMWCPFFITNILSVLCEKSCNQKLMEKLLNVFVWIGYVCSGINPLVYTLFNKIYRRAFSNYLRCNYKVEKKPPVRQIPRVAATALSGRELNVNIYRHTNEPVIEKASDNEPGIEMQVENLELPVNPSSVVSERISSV

D3 receptor [6] = target: T1, D3 receptor; experiment: Inhibition constants for binding to cloned D3 receptor expressed in HEK cells, [3H]spiperone; conditions: D3 expressed in HEK cells
Description: as §5

5HT1A receptor = target: T7, 5HT1A receptor (Homo sapiens, UniProt P08908); experiment: Binding affinity at cloned human 5HT1A receptor, [3H]8-OH-DPAT (HA7 cells)
T7 construct: expressed in transfected cells; host or cells: HA7 cells
T7 sequence (P08908 1-422): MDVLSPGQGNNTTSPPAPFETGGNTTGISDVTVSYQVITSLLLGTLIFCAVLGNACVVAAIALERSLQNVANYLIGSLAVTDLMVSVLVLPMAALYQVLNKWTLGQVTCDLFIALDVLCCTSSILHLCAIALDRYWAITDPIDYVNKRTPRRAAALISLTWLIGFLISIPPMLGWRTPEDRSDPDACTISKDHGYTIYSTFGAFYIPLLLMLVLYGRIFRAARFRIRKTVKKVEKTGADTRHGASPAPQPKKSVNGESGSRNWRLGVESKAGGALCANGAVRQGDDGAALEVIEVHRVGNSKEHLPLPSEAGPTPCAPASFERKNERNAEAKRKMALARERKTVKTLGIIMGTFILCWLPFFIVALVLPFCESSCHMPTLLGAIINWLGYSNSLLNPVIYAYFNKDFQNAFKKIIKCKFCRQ
Description: HA7 cells (human receptor) are grown to confluence in DMEM containing 10% fetal calf serum, 0.05% penicillin-streptomycin (pen-strep), and […] of G418. The cells are scraped from the 100 by 20 mm plates and centrifuged at 500·G for 5 min. The pellet is homogenized in 50 mM Tris-HCl, pH 7.7, with a polytron, centrifuged at 27,000·G and resuspended at 10 mg protein/ml in the same buffer. The homogenate is then stored at −70° C. in 1-ml aliquots.
The thawed cells are washed once and resuspended at 10 mg protein/80 ml in 25 mM Tris-HCl containing 100 μM of ascorbic acid and 10 mM of nialamide at pH 7.4. The assay is performed in triplicate in a 96-well plate. To 100 μl of [^3H]8-OH-DPAT (0.5 nM final conc), […] of test compound or buffer and 0.8 ml of cell homogenate (0.1 mg protein/well) is added to each well by a Tomtec Quadra 96. Nonspecific binding is defined using 1 μM dihydroergotamine. The plates are incubated at 25° C. for 60 min, then filtered. The incubation is terminated by rapid filtration through glass fiber filter paper on a Tomtec cell harvester. The filters are washed four times with ice-cold 50 mM Tris-HCl, pH 7.7, dried overnight, bagged with 10 ml scintillation cocktail before counting for 2 min. on a Wallac Betaplate 1205 liquid scintillation counter.

D2 receptor [7] = target: T2, D2 receptor; experiment: Binding affinity at cloned human D2 receptor, [3H]YM-09151-2 (CHOp-D2 cells)
Description: as §1, §2

T3 sequence (P21728 whole entry): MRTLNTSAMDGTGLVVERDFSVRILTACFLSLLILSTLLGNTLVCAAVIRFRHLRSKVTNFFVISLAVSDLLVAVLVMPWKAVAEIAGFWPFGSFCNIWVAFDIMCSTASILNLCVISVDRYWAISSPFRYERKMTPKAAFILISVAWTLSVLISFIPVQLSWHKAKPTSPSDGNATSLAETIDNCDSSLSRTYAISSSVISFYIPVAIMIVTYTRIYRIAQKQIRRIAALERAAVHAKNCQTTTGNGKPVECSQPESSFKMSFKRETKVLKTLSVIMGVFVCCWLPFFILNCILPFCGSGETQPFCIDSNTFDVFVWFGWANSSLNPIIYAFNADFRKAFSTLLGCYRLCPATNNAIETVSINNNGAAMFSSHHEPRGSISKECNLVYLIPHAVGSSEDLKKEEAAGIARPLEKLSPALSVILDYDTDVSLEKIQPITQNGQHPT
T5 sequence (P28223 whole entry): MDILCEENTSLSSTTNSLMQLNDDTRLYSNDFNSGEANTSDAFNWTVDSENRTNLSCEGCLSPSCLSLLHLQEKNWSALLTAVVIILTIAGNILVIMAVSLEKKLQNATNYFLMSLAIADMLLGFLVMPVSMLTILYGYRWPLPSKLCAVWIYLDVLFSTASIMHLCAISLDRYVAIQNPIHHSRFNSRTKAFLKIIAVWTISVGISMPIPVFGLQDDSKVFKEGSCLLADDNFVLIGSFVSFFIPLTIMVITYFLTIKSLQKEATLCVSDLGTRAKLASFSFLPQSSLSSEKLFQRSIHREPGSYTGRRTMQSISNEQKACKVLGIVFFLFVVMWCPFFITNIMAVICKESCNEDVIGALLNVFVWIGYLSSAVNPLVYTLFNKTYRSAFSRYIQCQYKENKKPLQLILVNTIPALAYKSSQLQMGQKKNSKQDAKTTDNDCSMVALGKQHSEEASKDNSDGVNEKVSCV
T1 sequence (P35462 whole entry): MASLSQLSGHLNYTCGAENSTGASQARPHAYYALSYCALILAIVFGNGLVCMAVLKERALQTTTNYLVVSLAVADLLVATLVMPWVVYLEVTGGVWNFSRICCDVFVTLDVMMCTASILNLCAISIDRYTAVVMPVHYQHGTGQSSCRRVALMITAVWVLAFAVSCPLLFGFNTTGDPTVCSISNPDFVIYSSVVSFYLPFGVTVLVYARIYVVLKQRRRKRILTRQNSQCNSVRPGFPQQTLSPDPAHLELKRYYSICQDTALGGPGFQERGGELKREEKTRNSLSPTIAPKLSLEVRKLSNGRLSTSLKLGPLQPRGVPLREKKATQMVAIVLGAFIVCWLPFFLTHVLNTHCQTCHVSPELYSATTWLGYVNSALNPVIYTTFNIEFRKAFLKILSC
T4 sequence (P14416 whole entry): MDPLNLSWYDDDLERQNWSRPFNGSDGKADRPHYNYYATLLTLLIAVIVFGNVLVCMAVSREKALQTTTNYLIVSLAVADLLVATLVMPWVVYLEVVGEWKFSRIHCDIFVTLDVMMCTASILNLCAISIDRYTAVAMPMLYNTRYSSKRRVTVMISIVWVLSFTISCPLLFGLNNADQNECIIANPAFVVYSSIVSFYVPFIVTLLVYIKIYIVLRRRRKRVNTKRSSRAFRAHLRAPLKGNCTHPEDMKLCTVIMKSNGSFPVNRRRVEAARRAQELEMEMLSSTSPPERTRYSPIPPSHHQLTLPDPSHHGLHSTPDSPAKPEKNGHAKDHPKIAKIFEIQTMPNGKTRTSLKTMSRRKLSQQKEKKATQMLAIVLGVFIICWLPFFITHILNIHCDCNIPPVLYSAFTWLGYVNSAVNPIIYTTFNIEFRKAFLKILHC
T2 sequence (P14416 whole entry): as above

Row | SMILES | activity at the D3 receptor (D3 receptor [1]) | Ki (D3 receptor [1]) | affinity for the D2 receptor (D2 receptor [2]) | Ki (D2 receptor [2]) | Ki (D3 receptor [3]) | D2/D3 (D3 receptor [3]) | EC50 (D2 receptor [4]) | Emax (D2 receptor [4]) | Ki (D1 receptor) | EC50 (D3 receptor [5]) | Emax (D3 receptor [5]) | Ki (D2L receptor) | Ki (5HT2A receptor) | Ki (5HT2C receptor) | Ki (D3 receptor [6]) | Ki (5HT1A receptor) | Ki (D2 receptor [7]) | selectivity for D3 relative to the standard 7-OH-DPAT (D3 receptor [3]; protocol used in Table 4)
1 | CCCN(CCc1ccc(N)cc1)CCN1CCN(c2ccccc2)CC1 [Compound 29a, 4-(2-{[2-(4-Phenyl-piperazin-1-yl)-ethyl]-propyl-amino}-ethyl)-phenylamine] | some activity | 1150 nM | exceptionally low affinity | 25600 nM | – | – | – | – | – | – | – | – | – | – | – | – | – | –
2 | C#CCN(CCCCN1CCN(c2cccc(Cl)c2Cl)CC1)C1CCc2ccc(O)cc2C1 (centres unmarked) [Compound 19b, 7-Hydroxy-2-[N-propargyl-(N-(4-(2,3-dichlorophenyl)-piperazin-1-yl)-butyl)amino]tetralin] | – | – | – | – | 12.7 nM | 2.3 | 11.8 ± 1.84 nM | 85.7 ± 9.15% | 1720 nM | 3.08 ± 1.09 nM | 90.3 ± 15.5% | 7.37 ± 0.27 nM | 160 nM | 264 nM | 3.59 ± 0.58 nM | 64.4 nM | 28.1 nM | –
3 | CCCN(CCCCN1CCN(c2cccc(Cl)c2Cl)CC1)C1CCc2ccc(O)cc2C1 (centres unmarked) [Compound 19a, 7-Hydroxy-2-[N-propyl-(N-(4-(2,3-dichlorophenyl)-piperazin-1-yl)-butyl)amino]tetralin] | – | – | – | – | 2.66 nM | 15 | 8.31 ± 0.69 nM | 80.1 ± 8.15% | 4060 nM | 6.49 ± 2.46 nM | 85.7 ± 1.19% | 8.78 ± 0.81 nM | 356 nM | 639 nM | 2.26 ± 0.5 nM | 40.6 nM | 31.5 nM | –
4 | C#CCN(CCN1CCN(c2ccccc2)CC1)C1CCc2ccc(O)cc2C1 (centres unmarked) [Compound 12a, 7-Hydroxy-1-2-[N-propargyl-(N-(4-phenylpiperazin-1-yl)-ethyl)amino]tetralin] | – | – | – | – | 23.5 nM | 2.8 | 6.18 ± 0.18 nM | 87.2 ± 2.16% | 663 nM | 1.25 ± 0.08 nM | 94.5 ± 6.17% | 245 ± 26 nM | 161 nM | 2690 nM | 14.2 ± 1.7 nM | 27.6 nM | 65.5 nM | –
5 | CCCN(CCN1CCN(c2ccccc2)CC1)C1CCc2ccc(O)cc2C1 (centres unmarked) [Compound 15a, 7-Hydroxy-2-[N-propyl-(N-(4-phenylpiperazin-1-yl)-ethyl)amino]tetralin] | – | – | – | – | 3.2 nM | 25 | 1.59 ± 0.06 nM | 105 ± 11.3% | > 10000 nM | 0.97 ± 0.02 nM | 84.6 ± 10.8% | 213 ± 26 nM | 1540 nM | > 10000 nM | 1.75 ± 0.34 nM | 21.4 nM | 75.5 nM | more than two fold

Other lines, results leading:

Row | activity at the D3 receptor (D3 receptor [1]) | Ki (D3 receptor [1]) | affinity for the D2 receptor (D2 receptor [2]) | Ki (D2 receptor [2]) | Ki (D3 receptor [3]) | D2/D3 (D3 receptor [3]) | EC50 (D2 receptor [4]) | Emax (D2 receptor [4]) | Ki (D1 receptor) | EC50 (D3 receptor [5]) | Emax (D3 receptor [5]) | Ki (D2L receptor) | Ki (5HT2A receptor) | Ki (5HT2C receptor) | Ki (D3 receptor [6]) | Ki (5HT1A receptor) | Ki (D2 receptor [7]) | selectivity for D3 relative to the standard 7-OH-DPAT (D3 receptor [3]; protocol used in Table 4) | SMILES
6 | some activity | 1480 nM | exceptionally low affinity | 23500 nM | – | – | – | – | – | – | – | – | – | – | – | – | – | – | CCCN(CCc1cccc(N)c1)CCN1CCN(c2ccccc2)CC1 [Compound 29b, 3-(2-{[2-(4-Phenyl-piperazin-1-yl)-ethyl]-propyl-amino}-ethyl)-phenylamine]
7 | – | 5.98 ± 0.7 nM | – | 702 ± 22 nM | – | – | – | – | – | – | – | – | – | – | – | – | – | – | CCCN(CCc1ccc(NS(=O)(=O)c2ccc(Cl)cc2)cc1)CCN1CCN(c2ccccc2)CC1 [Compound 30a, 4-Chloro-N-[4-(2-{[2-(4-phenyl-piperazin-1-yl)-ethyl]-propyl-amino}-ethyl)-phenyl]-benzenesulfonamide]
8 | – | 36.8 ± 5.4 nM | – | 552 ± 31 nM | – | – | – | – | – | – | – | – | – | – | – | – | – | – | CCCN(CCc1cccc(NS(=O)(=O)c2ccc(Cl)cc2)c1)CCN1CCN(c2ccccc2)CC1 [Compound 30b, 4-Chloro-N-[3-(2-{[2-(4-phenyl-piperazin-1-yl)-ethyl]-propyl-amino}-ethyl)-phenyl]-benzenesulfonamide]
